Key:
Format in all cases: cell-based
[1] = tested on: IL3000 T. congolense (drug sensitive) strain; experiment: In vitro Alamar Blue 72 hrs drug sensitivity assay for T. congolense; conditions: Trypanosoma congolense, IL3000 T. congolense bloodstream form, read-out: T. congo Act.
Method: In Vitro Alamar Blue 72 Hrs Drug Sensitivity Assay for T. Congolense. Compounds were tested in vitro for chemotherapeutic efficacy against the IL3000 T. congolense (drug sensitive) strain using an Alamar Blue assay. Test compounds were prepared as 10 mg/mL DMSO stocks for each assay run. Compounds were assayed in at least three separate, independent test runs and an 11-point dilution curve was used to determine the IC50 values. Bloodstream form trypanosomes were supported in HMI media containing 20% bovine serum and were incubated with test compounds for 69 hrs at 34° C. in a humidified atmosphere containing 5% CO2. Thereafter, 10 μL of Resazurin dye (12.5 mg in 100 mL of phosphate buffered saline, Sigma-Aldrich, Buchs, Switzerland) were added for an additional 3 hrs. Plates were then read using a fluorescent plate reader (Spectramax, Gemini XS, Bucher Biotec, Basel, Switzerland) using an excitation wavelength of 536 nm and an emission wavelength of 588 nm. Data points were averaged to generate sigmoidal dose-response curves and IC50 values were determined using Softmax Pro 5.2 software.

[2] = tested on: STIB 719/ILRAD 560 T. vivax (drug sensitive) strain; experiment: Ex vivo Alamar Blue 48 hrs drug sensitivity assay for T. vivax; conditions: Trypanosoma vivax, STIB719; STIB 719/ILRAD 560 T. vivax bloodstream form, ex vivo, Alamar Blue, 48 hrs; read-out: T. vivax Act.
Method: Ex vivo Alamar Blue48 hrs drug sensitivity assay for T. vivax. Compounds were tested ex vivo for chemotherapeutic efficacy against the STIB 719/ILRAD 560 T. vivax (drug sensitive) strain, using an Alamar Blue assay. Test compounds were prepared as 10 mg/mL DMSO stocks for each assay run. Compounds were assayed in at least three separate, independent test runs and an 11-point dilution curve was used to determine the IC50 values. Bloodstream form trypanosomes were propagated and harvested from a highly parasitaemic mouse (via cardiac puncture) and were incubated with test compounds for 45 hrs at 37° C. in a humidified atmosphere containing 5% CO2, supported in HMI media containing 20% bovine serum. Thereafter, 10 μL of Resazurin dye (12.5 mg in 100 mL of phosphate buffered saline, Sigma-Aldrich, Buchs, Switzerland) were added for an additional 3 hrs. Plates were then read using a fluorescent plate reader (Spectramax, Gemini XS, Bucher Biotec, Basel, Switzerland) using an excitation wavelength of 536 nm and an emission wavelength of 588 nm. Data points were averaged to generate sigmoidal dose-response curves and IC50 values were determined using Softmax Pro 5.2 software.

[3] = tested on: STIB 806 K T. evansi (drug sensitive) strain; experiment: In vitro Alamar Blue 72 hrs drug sensitivity assay for T. evansi; conditions: STIB 806 K T. evansi bloodstream form, Alamar Blue, 72 hrs; read-out: T. evansi Act.
Method: In vitro Alamar Blue 72 hrs drug sensitivity assay for T. evansi. Compounds were tested in vitro for chemotherapeutic efficacy against the STIB 806 K T. evansi (drug sensitive) strain, using an Alamar Blue assay. Test compounds were prepared as 10 mg/mL DMSO stocks for each assay run. Compounds were assayed in at least three separate, independent test runs and an 11-point dilution curve was used to determine the IC50 values. Bloodstream form trypanosomes were incubated with test compounds for 69 hrs at 37° C. in a humidified atmosphere containing 5% CO2, supported in HMI media containing 15% horse serum. Thereafter, 10 μL of Resazurin dye (12.5 mg in 100 mL of phosphate buffered saline, Sigma-Aldrich, Buchs, Switzerland) were added for an additional 3 hrs. Plates were then read using a fluorescent plate reader (Spectramax, Gemini XS, Bucher Biotec, Basel, Switzerland) using an excitation wavelength of 536 nm and an emission wavelength of 588 nm. Data points were averaged to generate sigmoidal dose-response curves and IC50 values were determined using Softmax Pro 5.2 software.

| SMILES | IC50 [1] | IC50 [2] | IC50 [3] |
| --- | --- | --- | --- |
| CC1(Nc2ncc3nc(Nc4cccc(Cl)c4)n(C4CCC(CN)CC4)c3n2)CCOCC1 (stereo not shown) [A-1, 9-((1s,4s)-4-(aminomethyl)cyclohexyl)-N8-(3-chlorophenyl)-N2-(4-methyltetrahydro-2H-pyran-4-yl)-9H-purine-2,8-diamine] | < 0.15 µM | < 0.15 µM | < 0.15 µM |
| CC1(Nc2ncc3nc(Nc4cc(Cl)ccc4F)n([C@H]4CC[C@@H](CN)CC4)c3n2)CCOCC1 [A-50, 9-((1s,4s)-4-(aminomethyl)cyclohexyl)-N8-(5-chloro-2-fluorophenyl)-N2-(4-methyltetrahydro-2H-pyran-4-yl)-9H-purine-2,8-diamine] | < 0.15 µM | – | < 0.15 µM |
| CN(C)C[C@H]1CC[C@@H](n2c(Nc3cccc(C(F)(F)F)c3)nc3cnc(NC4(C)CCOCC4)nc32)CC1 [A-56, 9-((1s,4s)-4-((dimethylamino)methyl)cyclohexyl)-N2-(4-methyltetrahydro-2H-pyran-4-yl)-N8-(3-(trifluoromethyl)phenyl)-9H-purine-2,8-diamine] | < 0.15 µM | – | < 0.15 µM |
| CC1(C)CC(Nc2ncc3nc(Nc4cccc(Cl)c4)n([C@H]4CC[C@@H](CN)CC4)c3n2)CCO1 (stereo partly shown) [B-8, 9-((1s,4s)-4-(aminomethyl)cyclohexyl)-N8-(3-chlorophenyl)-N2-(2,2-dimethyltetrahydro-2H-pyran-4-yl)-9H-purine-2,8-diamine] | 0.15 to 0.35 µM | < 0.15 µM | – |
| CNc1ncc2nc(Nc3cccc(Cl)c3)n(C3CCC(CN)CC3)c2n1 (stereo not shown) [B-9, 9-((1s,4s)-4-(aminomethyl)cyclohexyl)-N8-(3-chlorophenyl)-N2-methyl-9H-purine-2,8-diamine] | 0.35 to 0.5 µM | < 0.15 µM | – |
| NCC1CCC(n2c(Nc3cccc(Cl)c3)nc3cnc(NCC(F)(F)F)nc32)CC1 (stereo not shown) [B-10, 9-((1s,4s)-4-(aminomethyl)cyclohexyl)-N8-(3-chlorophenyl)-N2-(2,2,2-trifluoroethyl)-9H-purine-2,8-diamine] | 0.35 to 0.5 µM | < 0.15 µM | – |
| CC1(O)CCC(Nc2ncc3nc(Nc4cccc(Cl)c4)n(C4CCC(CN)CC4)c3n2)CC1 (stereo not shown) [B-11, 4-(9-((1s,4s)-4-(aminomethyl)cyclohexyl)-8-(3-chlorophenylamino)-9H-purin-2-ylamino)-1-methylcyclohexanol] | 0.35 to 0.5 µM | < 0.15 µM | – |
| NCC1CCC(n2c(Nc3cc(Cl)cc(C(F)(F)F)c3)nc3cnc(NC4CCOCC4)nc32)CC1 (stereo not shown) [B-12, 9-((1s,4s)-4-(aminomethyl)cyclohexyl)-N8-(3-chloro-5-(trifluoromethyl)phenyl)-N2-(tetrahydro-2H-pyran-4-yl)-9H-purine-2,8-diamine] | 0.35 to 0.5 µM | 0.35 to 0.5 µM | – |
| CN(C)c1ncc2nc(Nc3cc(C(F)(F)F)ccc3F)n(C3CCC(CN)CC3)c2n1 (stereo not shown) [B-14, 9-((1s,4s)-4-(aminomethyl)cyclohexyl)-N8-(2-fluoro-5-(trifluoromethyl)phenyl)-N2,N2-dimethyl-9H-purine-2,8-diamine] | 0.35 to 0.5 µM | < 0.15 µM | – |
| NCC1CCC(n2c(Nc3cc(C(F)(F)F)ccc3F)nc3cnc(N4CCCC4)nc32)CC1 (stereo not shown) [B-15, 9-((1s,4s)-4-(aminomethyl)cyclohexyl)-N-(2-fluoro-5-(trifluoromethyl)phenyl)-2-(pyrrolidin-1-yl)-9H-purin-8-amine] | 0.15 to 0.35 µM | < 0.15 µM | – |
| NCC1CCC(n2c(Nc3cc(C(F)(F)F)ccc3F)nc3cnc(NC4CCOCC4)nc32)CC1 (stereo not shown) [B-16, 9-((1s,4s)-4-(aminomethyl)cyclohexyl)-N8-(2-fluoro-5-(trifluoromethyl)phenyl)-N2-(tetrahydro-2H-pyran-4-yl)-9H-purine-2,8-diamine] | 0.35 to 0.5 µM | < 0.15 µM | – |
| NCC1CCC(n2c(Nc3cc(Cl)ccc3F)nc3cnc(NC4CCOCC4)nc32)CC1 (stereo not shown) [B-17, 9-((1s,4s)-4-(aminomethyl)cyclohexyl)-N8-(5-chloro-2-fluorophenyl)-N2-(tetrahydro-2H-pyran-4-yl)-9H-purine-2,8-diamine] | < 0.15 µM | < 0.15 µM | – |

From US10420772B2, “Animal and human anti-trypanosomonal and anti-leishmania agents” (Celgene Corporation, priority 2016, dated 2019)
